Measurements published in patent US9650395B2, “Antibacterial compounds and methods for use” (PTC Therapeutics, Inc., priority 2011, dated 2017).
≈ marks a conversion by molar mass, not a printed value. Counter-ions that a name gives are not always drawn. Like-named read-outs stand apart in the source and are kept apart here.

Experiments:
[1] = test system: Gram-positive Staphylococcus aureus (S. aureus) 29213; test: Antibacterial activity, microbroth dilution MIC, S. aureus 29213; type: cell-based; details: Staphylococcus aureus, read-out: MIC, 29213
[2] = test system: super sensitive Gram-negative Escherichia coli (E. coli) BAS849; test: Antibacterial activity, microbroth dilution MIC, E. coli BAS849; type: cell-based; details: Escherichia coli, read-out: MIC, BAS849
[3] = test system: quinolone resistant E. coli LZ3111; test: Antibacterial activity, MIC, quinolone resistant E. coli LZ3111; type: cell-based, Escherichia coli; details: Escherichia coli, read-out: MIC, LZ3111
Description: The antibacterial activity from a microbroth dilution method may be presented as the minimum inhibitory concentration (MIC in […]). The MIC value is the lowest concentration of a drug which prevents macroscopically visible bacterial growth under test conditions.
Mutations in these regions are known to confer a high level resistance to the quinolone class of antibiotics.

[4] = test system: control Gram-negative E. coli 25922 strain; test: Antibacterial activity, microbroth dilution MIC, E. coli 25922; type: cell-based, Escherichia coli; details: Escherichia coli, read-out: MIC, 25922
[5] = S. aureus 29213, microbroth dilution
[6] = E. coli BAS849, microbroth dilution
[7] = E. coli 25922, microbroth dilution

| SMILES | MIC [1, 5] | MIC [2, 6] | MIC [3] | MIC [4, 7] | MIC [2] | MIC [1] | MIC [4] |
| --- | --- | --- | --- | --- | --- | --- | --- |
| CCc1cc(C(=O)O)c(=O)[nH]c1-c1ccc(N2C[C@H]3CCC[C@@H](N(C)C)[C@H]3C2)cc1.Cl [Cpd 193, 6-{4-[(3aR,4R,7aS)-4-(dimethylamino)octahydro-2H-isoindol-2-yl]phenyl}-5-ethyl-2-oxo-1,2-dihydropyridine-3-carboxylic acid hydrochloride] | 12.5 to 150 µg/mL | 1 to 3.5 µg/mL | 12.5 to 150 µg/mL | 12.5 to 150 µg/mL |  |  |  |
| CCc1cc(C(=O)O)c(=O)[nH]c1-c1ccc(N2C[C@H]3CCC[C@@H](N(C)Cc4ccccc4)[C@H]3C2)cc1.O=C(O)C(F)(F)F [Cpd 194, 6-(4-{(3aR,4R,7aS)-4-[benzyl(methyl)amino]octahydro-2H-isoindol-2-yl}phenyl)-5-ethyl-2-oxo-1,2-dihydropyridine-3-carboxylic acid trifluoroacetate] | 3.5 to 12.5 µg/mL |  | 12.5 to 150 µg/mL | 12.5 to 150 µg/mL | 1 to 3.5 µg/mL |  |  |
| CCc1cc(C(=O)O)c(=O)[nH]c1-c1ccc(N2C[C@H]3CCC[C@@H](NC)[C@H]3C2)cc1 [Cpd 195, 5-ethyl-6-{4-[(3aR,4R,7aS)-4-(methylamino)octahydro-2H-isoiridol-2-yl]phenyl}-2-oxo-1,2-dihydropyridine-3-carboxylic acid trifluoroacetate] | 12.5 to 150 µg/mL |  | 12.5 to 150 µg/mL | 3.5 to 12.5 µg/mL | 1 to 3.5 µg/mL |  |  |
| CCc1cc(C(=O)O)c(=O)[nH]c1-c1ccc(N2C[C@H]3CCC[C@@H](N(Cc4ccccc4)Cc4ccccc4)[C@H]3C2)cc1.O=C(O)C(F)(F)F [Cpd 196, 6-{4-[(3aR,4R,7aS)-4-(dibenzylamino)octahydro-2H-isoindol-2-yl]phenyl}-5-ethyl-2-oxo-1,2-dihydropyridine-3-carboxylic acid trifluoroacetate] | 12.5 to 150 µg/mL |  | 12.5 to 150 µg/mL | 12.5 to 150 µg/mL | 12.5 to 150 µg/mL |  |  |
| CCc1cc(C(=O)O)c(=O)[nH]c1-c1ccc(N2C[C@H]3CCC[C@@H](N)[C@H]3C2)cc1.O=C(O)C(F)(F)F [Cpd 197, 6-{4-[(3aR,4R,7aS)-4-aminooctahydro-2H-isoindol-2-yl]phenyl}-5-ethyl-2-oxo-1,2-dihydropyridine-3-carboxylic acid trifluoroacetate] | 12.5 to 150 µg/mL |  | 12.5 to 150 µg/mL | 12.5 to 150 µg/mL | 3.5 to 12.5 µg/mL |  |  |
| CCc1cc(C(=O)O)c(=O)[nH]c1-c1ccc(N2C[C@H]3CC[C@@H](N(C)C)[C@H]3C2)cc1.Cl [Cpd 198, 6-{4-[(3aR,4R,6aS)-4-(dimethylamino)hexahydrocyclopenta[c]pyrrol-2(1H)-yl]phenyl}-5-ethyl-2-oxo-1,2-dihydropyridine-3-carboxylic acid hydrochloride] | 12.5 to 150 µg/mL | < 1 µg/mL | 12.5 to 150 µg/mL | 3.5 to 12.5 µg/mL |  |  |  |
| CCc1cc(C(=O)O)c(=O)[nH]c1-c1ccc(N2C[C@H]3CC[C@@H](N(C)Cc4ccccc4)[C@H]3C2)cc1.Cl [Cpd 199, 6-{4-[(3aR,4R,6aS)-4-[benzyl(methyl)amino]hexahydrocyclopenta[c]pyrrol-2(1H)-yl]phenyl}-5-ethyl-2-oxo-1,2-dihydropyridine-3-carboxylic acid hydrochloride] | 3.5 to 12.5 µg/mL | < 1 µg/mL | 12.5 to 150 µg/mL | 3.5 to 12.5 µg/mL |  |  |  |
| CCc1cc(C(=O)O)c(=O)[nH]c1-c1ccc(N2C[C@H]3CC[C@@H](NC)[C@H]3C2)cc1.Cl [Cpd 200, 5-ethyl-6-{4-[(3aR,4R,6aS)-4-(methylamino)hexahydrocyclopenta[c]pyrrol-2(1H)-yl]phenyl}-2-oxo-1,2-dihydropyridine-3-carboxylic acid hydrochloride] | 12.5 to 150 µg/mL | 1 to 3.5 µg/mL | 12.5 to 150 µg/mL | 3.5 to 12.5 µg/mL |  |  |  |
| CCc1cc(C(=O)O)c(=O)[nH]c1-c1ccc(N2C[C@H]3CC[C@@H](N(Cc4ccccc4)Cc4ccccc4)[C@H]3C2)cc1.O=C(O)C(F)(F)F [Cpd 201, 6-{4-[(3aR,4R,6aS)-4-(dibenzylamino)hexahydrocyclopenta[c]pyrrol-2(1H)-yl]phenyl}-5-ethyl-2-oxo-1,2-dihydropyridine-3-carboxylic acid trifluoroacetate] | 12.5 to 150 µg/mL |  | 12.5 to 150 µg/mL | 12.5 to 150 µg/mL | 3.5 to 12.5 µg/mL |  |  |
| CCc1cc(C(=O)O)c(=O)[nH]c1-c1ccc(N2C[C@H]3CC[C@H](N)[C@H]3C2)cc1.O=C(O)C(F)(F)F [Cpd 204, 6-{4-[(3aR,4S,6aS)-4-aminohexahydrocyclopenta[c]pyrrol-2(1H)-yl]phenyl}-5-ethyl-2-oxo-1,2-dihydropyridine-3-carboxylic acid trifluoroacetate] | 12.5 to 150 µg/mL |  | 12.5 to 150 µg/mL | 12.5 to 150 µg/mL | 1 to 3.5 µg/mL |  |  |
| CCc1cc(C(=O)O)c(=O)[nH]c1-c1ccc(N2C[C@H]3CCCC[C@@]3(CN(C)C)C2)cc1.O=C(O)C(F)(F)F [Cpd 205, 6-(4-{(3aR,7aS)-3a-[(dimethylamino)methyl]octahydro-2H-isoindol-2-yl}phenyl)-5-ethyl-2-oxo-1,2-dihydropyridine-3-carboxylic acid trifluoroacetate] | 12.5 to 150 µg/mL |  | 12.5 to 150 µg/mL | 12.5 to 150 µg/mL | 1 to 3.5 µg/mL |  |  |
| CCc1cc(C(=O)O)c(=O)[nH]c1-c1ccc(N2C[C@H]3CNC[C@H]3C2)cc1.Cl [Cpd 207, 5-ethyl-6-{4-[(3aR,6aS)-hexahydropyrrolo[3,4-c]pyrrol-2(1H)-yl]phenyl}-2-oxo-1,2-dihydropyridine-3-carboxylic acid hydrochloride] | 12.5 to 150 µg/mL | 3.5 to 12.5 µg/mL | 12.5 to 150 µg/mL | 12.5 to 150 µg/mL |  |  |  |
| CCc1cc(C(=O)O)c(=O)[nH]c1-c1ccc(N2CC3NC3C2)cc1 (stereo not shown) [Cpd 209, 6-[4-(3,6-diazabicyclo[3.1.0]hex-3-yl)phenyl]-5-ethyl-2-oxo-1,2-dihydropyridine-3-carboxylic acid] |  | 3.5 to 12.5 µg/mL (≈ 10.8 to 38.4 µM) | 12.5 to 150 µg/mL (≈ 38.4 to 461 µM) |  |  | 12.5 to 150 µg/mL (≈ 38.4 to 461 µM) | 12.5 to 150 µg/mL (≈ 38.4 to 461 µM) |
| CCc1cc(C(=O)O)c(=O)[nH]c1-c1ccc(N2C[C@H]3C[C@@H](NC)[C@H]3C2)cc1.Cl [Cpd 210, 5-ethyl-6-{4-[(1S,5R,6R)-6-(methylamino)-3-azabicyclo[3.2.0]hept-3-yl]phenyl}-2-oxo-1,2-dihydropyridine-3-carboxylic acid hydrochloride] | 12.5 to 150 µg/mL | 1 to 3.5 µg/mL | 12.5 to 150 µg/mL | 12.5 to 150 µg/mL |  |  |  |
| CCc1cc(C(=O)O)c(=O)[nH]c1-c1ccc(N2C[C@H]3C[C@@H](N)[C@H]3C2)cc1 [Cpd 211, 6-{4-[(1S,5R,6R)-6-amino-3-azabicyclo[3.2.0]hept-3-yl]phenyl}-5-ethyl-2-oxo-1,2-dihydropyridine-3-carboxylic acid] | 12.5 to 150 µg/mL (≈ 35.4 to 424 µM) | < 1 µg/mL | 12.5 to 150 µg/mL (≈ 35.4 to 424 µM) | 3.5 to 12.5 µg/mL (≈ 9.9 to 35.4 µM) |  |  |  |
| CCc1cc(C(=O)O)c(=O)[nH]c1-c1ccc(N2C[C@H]3C[C@H](N)[C@H]3C2)cc1.Cl [Cpd 212, 6-{4-[(1S,5R,6S)-6-amino-3-azabicyclo[3.2.0]hept-3-yl]phenyl}-5-ethyl-2-oxo-1,2-dihydropyridine-3-carboxylic acid hydrochloride] | 12.5 to 150 µg/mL | < 1 µg/mL | 12.5 to 150 µg/mL | 3.5 to 12.5 µg/mL |  |  |  |
| CCc1cc(C(=O)O)c(=O)[nH]c1-c1ccc(N2CC3CCCNC3C2)cc1.Cl (stereo not shown) [Cpd 213, 5-ethyl-6-[4-(octahydro-6H-pyrrolo[3,4-b]pyridin-6-yl)phenyl]-2-oxo-1,2-dihydropyridine-3-carboxylic acid hydrochloride] | 12.5 to 150 µg/mL | 1 to 3.5 µg/mL | 12.5 to 150 µg/mL | 12.5 to 150 µg/mL |  |  |  |
| CCc1cc(C(=O)O)c(=O)[nH]c1-c1ccc(N2CC(N)C3(CC3)C2)cc1.O=C(O)C(F)(F)F (stereo not shown) [Cpd 214, 6-[4-(7-amino-5-azaspiro[2.4]hept-5-yl)phenyl]-5-ethyl-2-oxo-1,2-dihydropyridine-3-carboxylic acid trifluoroacetate] | 12.5 to 150 µg/mL |  | 12.5 to 150 µg/mL | 12.5 to 150 µg/mL | 1 to 3.5 µg/mL |  |  |
| CCc1cc(C(=O)O)c(=O)[nH]c1-c1ccc(N2C[C@H]3C[C@@H](NC)C[C@H]3C2)cc1 [Cpd 215, 5-ethyl-6-{4-[(3aR,5r,6aS)-5-(methylamino)hexahydrocyclopenta[c]pyrrol-2(1H)-yl]phenyl}-2-oxo-1,2-dihydropyridine-3-carboxylic acid trifluoroacetate] | 12.5 to 150 µg/mL |  | 12.5 to 150 µg/mL | 3.5 to 12.5 µg/mL | 1 to 3.5 µg/mL |  |  |
| CCc1cc(C(=O)O)c(=O)[nH]c1-c1ccc(N2CCC(C3(N)CCC3)C2)cc1.O=C(O)C(F)(F)F (stereo not shown) [Cpd 218, 6-{4-[3-(1-aminocyclobutyl)pyrrolidin-1-yl]phenyl}-5-ethyl-2-oxo-1,2-dihydropyridine-3-carboxylic acid trifluoroacetate] | 12.5 to 150 µg/mL |  | 12.5 to 150 µg/mL | 3.5 to 12.5 µg/mL | 1 to 3.5 µg/mL |  |  |
| CCc1cc(C(=O)O)c(=O)[nH]c1-c1ccc(N2C[C@@H]3CCC[C@]3(C(=O)O)C2)cc1.O=C(O)C(F)(F)F [Cpd 220, (3aR,6aR)-2-[4-(5-carboxy-3-ethyl-6-oxo-1,6-dihydropyridin-2-yl)phenyl]hexahydrocyclopenta[c]pyrrole-3a(1H)-carboxylic acid trifluoroacetate] | 12.5 to 150 µg/mL |  | 12.5 to 150 µg/mL | 12.5 to 150 µg/mL | 3.5 to 12.5 µg/mL |  |  |
| CCc1cc(C(=O)O)c(=O)[nH]c1-c1ccc(N2CCC(N(C)C)C2)cc1F (stereo not shown) [Cpd 221, 6-{4-[3-(dimethylamino)pyrrolidin-1-yl]-2-fluorophenyl}-5-ethyl-2-oxo-1,2-dihydropyridine-3-carboxylic acid] | 12.5 to 150 µg/mL (≈ 33.5 to 402 µM) | 1 to 3.5 µg/mL (≈ 2.68 to 9.37 µM) | 12.5 to 150 µg/mL (≈ 33.5 to 402 µM) | 3.5 to 12.5 µg/mL (≈ 9.37 to 33.5 µM) |  |  |  |
